Consider eight molecules from patent US20190362816A1, “Systems and Methods for Developing Covalent Inhibitor Libraries for Screening Using Virtual Docking and Experimental Approaches” (Northwestern University, priority 2016, published 2019).

SMILES strings stand for the structures.

In assay [1] the target is T1, cysteine protease papain (Carica papaya, UniProt P00784).
T1 sequence (P00784 134-345): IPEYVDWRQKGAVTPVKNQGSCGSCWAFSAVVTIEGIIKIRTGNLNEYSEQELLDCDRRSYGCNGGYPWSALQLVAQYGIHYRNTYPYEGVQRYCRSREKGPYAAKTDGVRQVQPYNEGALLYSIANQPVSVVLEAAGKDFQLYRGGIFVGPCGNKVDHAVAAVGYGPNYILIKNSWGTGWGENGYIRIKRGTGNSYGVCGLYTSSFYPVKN
Particulars: J Med Chem. 2014, 57(11), 4969-74; cited from earlier work.

In assay [2] the target is T1, cysteine protease papain. The assay is described as follows: enzyme assay against cysteine protease papain (kinact/Ki). The format is biochemical. Particulars: covalent fragments of this work; J Med Chem. 2014, 57(11), 4969-74; read-out: Inhibitors of papain in this work, kinact/Ki. The text has this: In a further embodiment, once the potential covalent inhibitor candidate libraries have been prepared, these candidates can be evaluated by dosing them in a specific assay at a specific concentration versus the receptor to determine the potency of each of the candidates. Depending on the covalent inhibitor, the receptor, and the therapeutic area, the assays will vary. Methods of performing wet chemistry assays are well known. Examples of covalent fragments evaluated in the enzyme assays against cysteine protease papain is shown below (J Med Chem. 2014 Jun. 12; 57(11):4969-74): […]

In assay [3] the target is Cathepsin B cysteine protease (Homo sapiens, UniProt P07858). The assay is described as follows: inhibition of related Cathepsin B cysteine protease. The class given is biochemical. The conditions noted are these: selectivity versus cathepsin L.
The target in assay [4] is cysteine protease cathepsin L (Homo sapiens, UniProt P07711). The assay is described as follows: cathepsin L assay using commercially available fluorescent substrates. The format is biochemical. The text has this: Experimental validation of identified inhibitors of cysteine protease cathepsin L. Identified covalent inhibitors (including 53) had been synthesized and tested in cathepsin L assays using commercially available fluorescent substrates for cathepsins (Calbiochem).
cysteine protease cathepsin L, sequence (P07711 114-333): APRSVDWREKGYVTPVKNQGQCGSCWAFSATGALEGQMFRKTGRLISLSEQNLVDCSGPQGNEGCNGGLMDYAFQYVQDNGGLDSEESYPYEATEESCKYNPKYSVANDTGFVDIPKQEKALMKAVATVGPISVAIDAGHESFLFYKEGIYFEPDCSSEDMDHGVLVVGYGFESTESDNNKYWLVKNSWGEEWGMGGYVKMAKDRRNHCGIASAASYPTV

For `COC(=O)/C=C/CNC(=O)[C@@H](CNC(C)=O)Cc1ccccc1`, the “Known inhibitors of papain, kinact/Ki” value in assay [1] was 6.575 M⁻¹ s⁻¹.

For the molecule `COC(=O)/C=C/CNC(=O)c1cc(-c2ccc(C)cc2)on1`, the kinact/KI in assay [2] was found to be 1.23 M⁻¹ s⁻¹.

Regarding `COC(=O)/C=C/CNC(=O)[C@H](CNC(C)=O)Cc1ccccc1`, the “Known inhibitors of papain, kinact/Ki” value in assay [1] was 0.386 M⁻¹ s⁻¹.

Turning to `COC(=O)/C=C/CNC(=O)c1sc(-c2ccccc2F)nc1C`, the kinact/KI in assay [2] stood at 0.409 M⁻¹ s⁻¹.

In the case of `COC(=O)/C=C/CNC(=O)[C@@H](CNC(C)=O)CC(C)C`, in assay [1], the “Known inhibitors of papain, kinact/Ki” value is 1.102 M⁻¹ s⁻¹.

In the case of `COC(=O)/C=C/CNC(=O)C1CCN(C(=O)CC(C)C)CC1`, in assay [2], the kinact/KI stood at 0.461 M⁻¹ s⁻¹.

Take `COC(=O)/C=C/CNC(=O)c1ccc(C2CCCO2)s1` (stereo not shown): the kinact/KI in assay [2] amounted to 0.037 M⁻¹ s⁻¹.

Usually Ki stands for a dissociation constant, usually derived from enzyme kinetics or from competition with a known ligand. Low values mean higher affinity, high ones lower affinity. Turning to `CC(Oc1ccc(Br)cc1Br)C(=O)NC/C=C/S(C)(=O)=O` (racemic) [Compound 53], in assay [3], the “inhibition of Cathepsin B” value is “does not inhibit”. Besides, in assay [4] (detailed kinetic analysis), the kinact/KI worked out at 4.1 M⁻¹ s⁻¹. Also, in assay [4] (fluorescent substrates (Calbiochem)), the Ki turned out to be 134 ± 2 µM.
